Measured values as given in US4551534A, “Aralkyl or aryloxyalkyl 1,7-naphthyridine-3-carboxylic acid esters” (American Home Products Corporation, priority 1984, dated 1985).

Assays:
[1] = system: rabbit aortic smooth muscle; assay: Ca+2 antagonism: relaxation of KCl-depolarized rabbit aortic smooth muscle strips; conditions: Oryctolagus cuniculus, 20 min; 10^-5 M; 100 mM KCl contraction; mean of two experiments 20 minutes after addition; read-out: percent relaxation (P.R.)
Description: The composition of PSS was as follows (mM): NaCl 112, KCl 5, NaHCO3 25, KH2 PO4 1, MgSO4 1.2, CaCL2 2.5, dextrose 10. The lower end of each tissue strip was attached to a fixed post and the upper end to a Statham UC-4 transducer. Changes in force development were recorded on a Beckman Dynograph Polygraphic Recorder.
Following equilibration, the muscles were contracted in a depolarizing solution of PSS in which 100 mM KCl was substituted for an equimolar concentration of NaCl. Following attainment of steady-state isometric force (20 min.), the test compound was added to afford a final concentration of 1×10^-5 M. The inhibitory effect, expressed as percent relaxation, was determined from the mean of two experiments twenty minutes after the addition of the compound being tested.
(§1) The following examples illustrate the preparation of a representative number of compounds of this invention. After each example, the Ca^+2 antagonist activity of the compound is presented in terms of percent relaxation (P.R.) at 10^-5 M concentration unless indicated otherwise. Similarly, the antihypertensive activity is reported in terms of millimeters mercury (mmHg) blood pressure (B.P.) reduction at the stated time post 50 mg/kg oral dosing or other dosing as indicated.

[2] = system: isolated paced intact rabbit atria; assay: Cardiac depressant (negative inotropic) effects in isolated paced intact rabbit atria; conditions: 3 Hz, 30° C., cumulative 10^-9 M to 10^-5 M
Description: (§2) The potential for detrimental cardiac depressant (negative inotropic) effects of the compounds of this invention was assessed in isolated paced intact rabbit atria. […] Muscles (N=5-9/compound) were stimulated at a frequency of 3 Hz with a WPI stimulator for a 60 minute equilibration period. Changes in isometric force were recorded as described for the aortic smooth muscle experiments,supra. […]

[3] = system: spontaneously hypertensive rats; assay: Hypotensive in vivo effect: systolic blood pressure of spontaneously hypertensive rats; parameters: species or system rat; conditions: 50 mg/kg oral, group of 4 spontaneously hypertensive rats
Description: The hypotensive in vivo effect of the compounds of this invention was determined by measuring changes in the systolic blood pressure of spontaneously hypertensive rats with a Decker Caudal Plethysmograph. The compound being tested was administered to a group of 4 rats and their systolic pressure was determined prior to and at 1.5 and 4 hours after compound administration. Initial testing was done by oral administration of the compound at a dose of 50 mg/kg body weight. Results (mmHg) are expressed as decreases in systolic blood pressure.
as §1

[4] = Cardiac depressant (negative inotropic) effects in isolated paced intact rabbit atria; conditions: isolated paced atria, 10^-5 M, read-out: inhibition (of developed isometric force) at the highest concentration
Description: as §2

[5] = system: spontaneously hypertensive rats; assay: Hypotensive in vivo effect: systolic blood pressure of spontaneously hypertensive rats; parameters: species or system rat; conditions: 50 mg/kg oral

Compound | inhibition at 10 µM [1] | IC25 (concentration which produces 25% inhibition of isometric force) [2] | blood pressure (B.P.) reduction at 1.5 hours [3] | blood pressure (B.P.) reduction at 4 hours [3] | inhibition at 10 µM [4] | blood pressure (B.P.) reduction at 24 hours [5]
COC(=O)C1=C(C)NC2=C(C(=O)CN(CC(O)COc3cccc(C)c3C)C2)C1c1cccc(Cl)c1Cl (stereo not shown) [Example 8, 4-(2,3-Dichlorophenyl)-7-[3-(2,3-dimethylphenoxy)-2-hydroxypropyl]-1,4,5,6,7,8-hexahydro-2-methyl-5-oxo-1,7-naphthyridine-3-carboxylic acid methyl ester] | 50% | 7 µM | -16 mmHg | -41 mmHg |  | 
COC(=O)C1=C(C)NC2=C(C(=O)CN(CC(O)COc3cccc(Cl)c3Cl)C2)C1c1ccccc1C (stereo not shown) [Example 5, 7-[3-(2,3-Dichlorophenoxy)-2-hydroxypropyl]-1,4,5,6,7,8-hexahydro-2-methyl-4-(2-methylphenyl)-5-oxo-1,7-naphthyridine-3-carboxylic acid methyl ester] | 62% | > 10 µM | -23 mmHg | -25 mmHg |  | 
COc1ccc(CCN(C)CCCC(C#N)(c2ccc(OC)c(OC)c2)C(C)C)cc1OC (stereo not shown) [Verapamil, reference compound] |  | 0.06 µM |  |  |  | 
COC(=O)C1=C(C)NC(C)=C(C(=O)OC)C1c1ccccc1[N+](=O)[O-] [nifedipine, reference compound] |  | 0.05 µM |  |  |  | 
COC(=O)C1=C(C)NC2=C(C(=O)CN(CCCOc3ccccc3)C2)C1c1c(F)c(F)c(F)c(F)c1F (stereo not shown) [Example 9, 1,4,5,6,7,8-Hexahydro-2-methyl-5-oxo-4-(pentafluorophenyl)-7-(3-phenoxypropyl)-1,7-naphthyridine-3-carboxylic acid methyl ester] | 61% | 3.5 µM | -43 mmHg | -41 mmHg |  | 
CCOC(=O)C1=C(C)NC(C)=C(C(=O)OC)C1c1cccc([N+](=O)[O-])c1 (stereo not shown) [nitrendipine, reference compound] |  | 0.35 µM |  |  |  | 
COC(=O)C1=C(C)NC2=C(C(=O)CN(CC(O)CCc3ccccc3)C2)C1c1c(F)c(F)c(F)c(F)c1F (stereo not shown) [Example 10, 1,4,5,6,7,8-Hexahydro-7-(2-hydroxy-4-phenylbutyl)-2-methyl-5-oxo-4-(pentafluorophenyl)-1,7-naphthyridine-3-carboxylic acid methyl ester] | 80.5% | 3 µM | -41 mmHg | -51 mmHg |  | 
COC(=O)C1=C(C)NC2=C(C(=O)CN(CC(O)COc3ccc(OC)cc3)C2)C1c1c(F)c(F)c(F)c(F)c1F (stereo not shown) [Example 7, 1,4,5,6,7,8-Hexahydro-7-[3-(4-methoxyphenoxy)-2-hydroxypropyl]-2-methyl-5-oxo-4-(pentafluorophenyl)-1,7-naphthyridine-3-carboxylic acid methyl ester] | 73% | 5 µM | -31 mmHg | -56 mmHg |  | 
CCOC(=O)C1=C(C)NC(C)=C(C(=O)OC)C1c1cccc(Cl)c1Cl (stereo not shown) [felodipine, reference compound] |  | 0.8 µM |  |  |  | 
NCCCCCCNS(=O)(=O)c1cccc2c(Cl)cccc12 [Example W-7, reference compound] |  |  |  |  | < 20% | 
COC(=O)C1=C(C)NC2=C(C(=O)CN(CC(O)c3ccccc3)C2)C1c1c(F)c(F)c(F)c(F)c1F (stereo not shown) [Example 11, 1,4,5,6,7,8-Hexahydro-7-(2-hydroxy-2-phenylethyl)-2-methyl-5-oxo-4-pentafluorophenyl-1,7-naphthyridine-3-carboxylic acid methyl ester] | 66.5% |  | -58 mmHg | -73 mmHg |  | 
COC(=O)C1=C(C)NC2=C(C(=O)CN(CC(O)COc3cccc(C)c3C)C2)C1c1ccccc1C (stereo not shown) [Example 1, 7-[3-(2,3-Dimethylphenoxy)-2-hydroxypropyl]-1,4,5,6,7,8-hexahydro-2-methyl-4-(2-methylphenyl)-5-oxo-1,7-naphthyridine-3-carboxylic acid methyl ester] | 91% | > 10 µM | -30 mmHg | -34 mmHg |  | 
COC(=O)C1=C(C)NC2=C(C(=O)CN(CC(O)COc3cccc(C)c3C)C2)C1c1c(F)ccc(Cl)c1Cl (stereo not shown) [Example 4, 4-(2,3-Dichloro-6-fluorophenyl)-7-[3-(2,3-dimethylphenoxy)-2-hydroxypropyl]1,4,5,6,7,8-hexahydro-2-methyl-5-oxo-1,7-naphthyridine-3-carboxylic acid methyl ester] | 42% | > 10 µM | -56 mmHg | -72 mmHg |  | 
COC(=O)C1=C(C)NC2=C(C(=O)CN(CC(O)COc3ccccc3)C2)C1c1c(F)c(F)c(F)c(F)c1F (stereo not shown) [Example 6, 1,4,5,6,7,8-Hexahydro-2-methyl-5-oxo-4-(pentafluorophenyl)-7-(3-phenoxy-2-hydroxypropyl)-1,7-naphthyridine-3-carboxylic acid methyl ester] | 67% | 4.5 µM | -54 mmHg | -80 mmHg |  | 
COC(=O)C1=C(C)NC2=C(C(=O)CN(CC(O)COc3cccc(C)c3C)C2)C1c1c(F)c(F)c(F)c(F)c1F (stereo not shown) [Example 2, 7-[3-(2,3-Dimethylphenoxy)-2-hydroxypropyl]-1,4,5,6,7,8-hexahydro-2-methyl-5-oxo-4-(pentafluorophenyl)-1,7-naphthyridine-3-carboxylic acid methyl ester] | 65% | 5 µM | -56 mmHg | -86 mmHg |  | -28 mmHg
COC(=O)C1=C(C)NC2=C(C(=O)CN(CC(O)COc3cccc(C)c3C)C2)C1c1c(F)c(F)cc(F)c1F (stereo not shown) [Example 3] | 63% | 6 µM | -25 mmHg | -56 mmHg |  | 
